Results: patent publication US20140187470A1 (Synergy Pharmaceuticals Inc., priority 2013, published 2014)
Where a SMILES comes first, the peptide text is derived from it. Bridges are numbered along the chain shown (N, C = ends).

Experiments:
[1] = In vitro proteolytic stability using simulated gastric fluid (SGF) digestion, HPLC analysis; type: in vitro ADME; conditions: 0 min vs 120 min, HPLC (FIG. 1B)
Experimental: FIG. 1B is a schematic representation of the results of HPLC chromatographic analyses of SP-304 samples after incubation with SGF at indicated times (0 min in the upper panel and 120 min in the lower panel). […] The arrows indicate the elution position of SP-304.
The stability of the GRCA peptide according to the invention is determined in the presence of simulated gastric fluid (SGF). GRCA peptide (final concentration of 8.5 mg/ml) is incubated in SGF (Proteose peptone (8.3 g/liter; Difco), D-Glucose (3.5 g/liter; Sigma), NaCl (2.05 g/liter; Sigma), KH2PO4 (0.6 g/liter; Sigma), CaCl2 (0.11 g/liter), KCl (0.37 g/liter; Sigma), Porcine bile (final 1× concentration 0.05 g/liter; Sigma) in PBS, Lysozyme (final 1× concentration 0.10 g/liter; Sigma) in PBS, Pepsin (final 1× concentration 0.0133 g/liter; Sigma) in PBS). SGF is made on the day of the experiment and the pH is adjusted to 2.0±0.1 using HCl or NaOH as necessary. After the pH adjustment, SGF is sterilized filtered with 0.22 μm membrane filters. SP-304 (final concentration of 8.5 mg/ml) is incubated in SGF at 37° C. for 0, 15, 30, 45, 60 and 120 min in triplicate aliquots. Following incubations, samples are snap frozen in dry ice then are stored in a −80° C. freezer until they are assayed in duplicate.

[2] = In vitro proteolytic stability using simulated intestinal fluid (SIF) digestion, HPLC analysis; type: in vitro ADME
Experimental: FIG. 2B is a schematic representation of the results of HPLC chromatographic analyses of SP304 samples after incubation with (A) heat inactivated SIF for 300 min or with (B) SIF for 120 min. […] Arrows indicate the position of SP-304.
Arrow indicates the elution position of SP-304 peptide. […] These new peptide peaks represent the possible degradation products of SP-304.
Arrow indicates the elution position of SP-332 peptide.
Arrows indicate the elution position of SP-333.
The stability of the GRCA peptide is also evaluated against digestion with simulated intestinal fluid (SIF). SIF solution was prepared by the method as described in the United States Pharmacopoeia, 24th edition, p2236. The recipe to prepare SIF solution is as described below. The SIF solution contains NaCl (2.05 g/liter; Sigma), KH2PO4 (0.6 g/liter; Sigma), CaCl2 (0.11 g/liter), KCl (0.37 g/liter; Sigma), and Pacreatin 10 mg/ml. The pH is adjusted to 6 and the solution is filter sterilized. A solution of SP-304 (8.5 mg/ml) is incubated in […] at 37° C. for 0, 30, 60, 90, 120, 150 and 300 min in triplicate aliquots. Following incubations, samples are removed and snap frozen with dry ice and stored in a −80° C. freezer until they are assayed in duplicate. F
The integrity of GRCA peptide is evaluated by HPLC by essentially using the method described for SGF digestion.

GC-C receptors = molecular target: T1, GC-C receptors (Homo sapiens, UniProt P25092); assay: Cyclic GMP stimulation assay in CaCo-2 cells; type: cell-based; conditions: CaCo-2 monolayers; for Effect of PDE inhibitor on stimulation of cGMP production by SP-304: in combination with SP-304, 30 minutes
T1 construct: Fully differentiated CaCo-2 cells are known to express high density of GC-C receptors; host or cells: CaCo-2 human colon carcinoma cells, differentiated monolayers
Experimental: (§1) CaCo-2 cell culture: CaCo-2, human colon carcinoma cells, were obtained from American Type Culture Collection (ATCC) and cultured in DMEM medium containing 10% fetal bovine serum, 1% penicillin-streptomycin, 2 mM L-glutamine, 1% non-essential-amino acids. Cells were fed fresh medium every third day and grown for 16-21 days to form completely differentiated monolayer. Fully differentiated CaCo-2 cells are known to express high density of GC-C receptors.
Cyclic GMP stimulation assay: Biological activity of the GCRA peptides was assayed as previously reported (5). Briefly, 16 days grown monolayers of CaCo-2 cells in 24-well plates were washed twice with 250 μl of DMEM containing 50 mM HEPES (pH 7.4), pre-incubated at 37° C. for 10 min with 250 μl of DMEM containing 50 mM HEPES (pH 7.4) and 1 mM isobutylmethylxanthine (IBMX), followed by incubation with GCRA peptides (0.1 nM to 10 μM) for 30 min. The medium was aspirated, and the reaction was terminated by the addition of 3% perchloric acid. Following centrifugation, and neutralization with 0.1 N NaOH, the supernatant was used directly for measurements of cGMP using an ELISA kit (Caymen Chemical, Ann Arbor, Mich.)
Monolayers were treated 500 μL of serum free DMEM for 30 minutes with either SP-304 alone or in combination with phosphodiesterase inhibitors such as, 3-isobutyl-1-methylxanthine (IBMX), sulindac sulfone (SS) and zaprinast (ZAP). After the incubation, monolayers were lysed with 250 μL of 3% perchloric acid. The lysate was neutralized with 0.1 N NaOH and used for ELISA to determine the concentration of cGMP. The assay procedure was essentially the same as described (5). […] Since CaCo-2 cells overexpress phosphodiesterases (PDE), GC-C agonists are used in combination with PDE inhibitors to measure the actual stimulatory effect of GC-C agonists.

CaCo-2 cells = assay: 3H-taurocholate (bile acid) absorption by CaCo-2 monolayer; type: cell-based, human; conditions: for Absorption of 3H-taurocholate (kinetics experiment): 16-day grown CaCo-2 monolayers, up to 60 minutes incubation; for Absorption of 3H-taurocholate (kinetics experiment) / Absorption of 3H-taurocholate (bar graph experiment): 30 minutes pre-incubation; for Absorption of 3H-taurocholate (bar graph experiment): CaCo-2 cells grown for 20 days, 60 minutes incubation, quadruplets
Experimental: as §1
Preparation of ^3H-taurocholate Cocktail: Phosphatidyl choline was dissolved in ethanol to make 50 mM stock solution. Calculated volume of the stock solution of phosphatidyl choline was mixed with 3H-taurocholate in a plastic tube and dried under argon gas at 80° C. The dried material was dissolved in transport buffer to get the final concentration of phosphatidyl choline (0.5 mM) and of 3H-taurocholate 10 μCi/mL.
CaCo-2 cells were grown in 24-well plates for 16 days to allow complete monolayer formation and cell differentiation. Completely differentiated monolayers were then pre-incubated with 250 μL of the transport buffer (HEPES 25 mM, NaCl 120 mM, KCl 5.4 mM, CaCl2 1.8 mM and MgSO4, pH 7.5) containing either SP-304 alone or in combination with PDE inhibitors such as IBMX, SS and ZAP. The monolayers were pre-incubated with transport buffer containing either of the following: vehicle (control), 1 mM 8-bromo-cGMP, 500 μM SS, 500 μM ZAP, 1 μM SP-304, 0.1 μM SP-304+500 μM SS and 1 μM SP-304+500 μM ZAP. After the indicated pre-incubation time, 50 μL of ^3H-taurocholate (1 μCi) cocktail was added and cells were incubated for an additional 60 minutes, washed three times with ice cold PBS. Cells were lysed with 0.5 N NaOH for 4 hours and radioactivity in the lysate was counted in a scintillation counter.
16-day grown monolayers of CaCo-2 cells in 24-well plates were pre-incubated with transport buffer containing the compounds as indicated in the figure for 30 minutes. After the pre-incubation, 1 μCi of ^3H-taurocholate cocktail was added in each well and cells were further incubated for 60 minutes. Cells were washed three times with ice cold PBS and lysed with 0.5 N NaOH and lysates were counted for radioactivity in a scintillation counter. Results are expressed as an average of three determinations. Results on the x-axis were plotted in logarithmic scale.
After the pre-incubation, 1 μCi of ^3H-taurocholate cocktail was added in each well and cells were further incubated for 60 minutes. Cells were washed three times with ice cold PBS and lysed with 0.5 N NaOH and lysates were counted for radioactivity in a scintillation counter. This experiment was run in quadruplets and results are expressed as mean±SD.
The procedure used in this experiment was essentially the same except that a lower concentration of ZAP (250 μM) in combination experiments with SP-304.

[3] = tested on: patients with chronic idiopathic constipation (CIC); assay: Plecanatide Phase IIb/III trial in patients with chronic idiopathic constipation; type: in vivo, human
Experimental: The randomized, double-blind, placebo-controlled, repeat-dose, dose-ranging study was designed to determine whether plecanatide could increase the number of complete spontaneous bowel movements (CSBM's) and impact other parameters such as stool consistency, straining and time to first bowel movement in patients with CIC. The 12-week study, which included 951 CIC patients at 113 clinical sites in the United States, evaluated 3 doses of plecanatide (0.3, 1.0, 3.0 mg) plus a placebo arm.

animal models = assay: Animal models, oral administration of plecanatide; type: in vivo
[4] = simulated gastric fluid (SGF) with Pepsin (0.0133 g/liter), Lysozyme, Porcine bile, pH 2.0±0.1; conditions: 37° C., up to 120 min
[5] = Phase IIb/III clinical study, oral, CIC

T1 sequence (P25092 24-1073): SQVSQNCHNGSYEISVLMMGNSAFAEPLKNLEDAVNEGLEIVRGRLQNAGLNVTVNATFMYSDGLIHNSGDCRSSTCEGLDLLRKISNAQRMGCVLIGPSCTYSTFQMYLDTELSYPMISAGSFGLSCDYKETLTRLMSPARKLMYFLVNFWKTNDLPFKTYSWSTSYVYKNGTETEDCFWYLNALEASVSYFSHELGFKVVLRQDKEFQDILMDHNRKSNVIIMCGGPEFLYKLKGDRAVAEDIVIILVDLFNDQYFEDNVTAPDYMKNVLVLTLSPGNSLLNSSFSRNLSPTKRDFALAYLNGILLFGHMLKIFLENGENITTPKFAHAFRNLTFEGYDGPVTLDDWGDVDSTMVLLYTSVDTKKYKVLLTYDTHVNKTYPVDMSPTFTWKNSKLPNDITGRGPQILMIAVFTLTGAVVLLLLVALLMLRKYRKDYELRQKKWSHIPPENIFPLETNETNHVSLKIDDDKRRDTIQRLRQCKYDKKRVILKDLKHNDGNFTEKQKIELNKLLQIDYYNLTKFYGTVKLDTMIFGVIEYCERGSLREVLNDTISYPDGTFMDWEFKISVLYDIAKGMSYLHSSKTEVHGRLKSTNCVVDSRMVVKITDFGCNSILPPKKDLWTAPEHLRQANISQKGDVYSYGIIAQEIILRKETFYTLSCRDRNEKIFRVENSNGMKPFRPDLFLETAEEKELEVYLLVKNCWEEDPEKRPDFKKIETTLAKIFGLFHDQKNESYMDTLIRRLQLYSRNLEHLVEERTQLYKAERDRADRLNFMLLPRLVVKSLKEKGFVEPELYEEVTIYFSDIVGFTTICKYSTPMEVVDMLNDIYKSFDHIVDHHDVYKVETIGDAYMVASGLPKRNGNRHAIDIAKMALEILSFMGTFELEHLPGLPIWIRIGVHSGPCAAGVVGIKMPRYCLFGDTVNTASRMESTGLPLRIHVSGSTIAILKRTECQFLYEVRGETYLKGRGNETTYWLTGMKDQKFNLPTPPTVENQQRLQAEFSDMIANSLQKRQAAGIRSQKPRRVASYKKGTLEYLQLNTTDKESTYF

Question: For `CC(C)C[C@H](NC(=O)[C@@H]1CSSC[C@@H]2NC(=O)[C@H](CC(C)C)NC(=O)[C@H](CCC(=O)O)NC(=O)[C@@H](NC(=O)[C@H](CCC(=O)O)NC(=O)[C@H](CC(=O)O)NC(=O)[C@@H](N)CC(N)=O)CSSC[C@H](NC(=O)[C@H](C)NC(=O)[C@H](C(C)C)NC(=O)[C@H](CC(N)=O)NC(=O)[C@H](C(C)C)NC2=O)C(=O)N[C@@H]([C@@H](C)O)C(=O)NCC(=O)N1)C(=O)O` [SP-304, Asn^1-Asp^2-Glu^3-Cys^4-Glu^5-Leu^6-Cys^7-Val^8-Asn^9-Val^10-Ala^11-Cys^12-Thr^13-Gly^14-Cys^15-Leu^16] (H-NDECELCVNVACTGCL-OH; disulfide 4-12, 7-15; N-terminus assumed), which “HPLC major peak after incubation with SGF” value [1] is on record?
Answer: resistant to SGF digestion

Question: What about the “HPLC peak after incubation with SIF for 60 min” value ([2]; 0 vs 60 min, HPLC (FIG. 7D)) of the same molecule?
Answer: completely vanished

Question: What about the “HPLC peak after incubation with SIF for 120 min” value ([2]; 120 min, HPLC (FIG. 2B, 7E, 7F)) of the same molecule?
Answer: completely converted SP-304 into another peptide

Question: And the “cGMP production by CaCo-2 cells in response to stimulation” value (GC-C receptors; 30 minutes)?
Answer: produced cGMP

Question: And the “Absorption of 3H-taurocholate (kinetics experiment)” value (CaCo-2 cells)?
Answer: inhibited

Question: What about the “Absorption of 3H-taurocholate (bar graph experiment)” value (CaCo-2 cells) of the same molecule?
Answer: inhibited

Question: And the “Inhibition in absorption of 3H-taurocholate, SP-304 alone” value (CaCo-2 cells; SP-304 0.1 μM alone)?
Answer: did not produce much inhibition

Question: And the “Inhibition of 3H-taurocholate absorption, SP-304 in combination with ZAP” value (CaCo-2 cells; SP-304 0.1 μM in combination with ZAP (250 μM))?
Answer: greater effect on inhibition

Question: And the Overall responder rate ([3]; 3 mg dose, 12-week treatment, CIC patients (placebo 10.7%), p=0.009)?
Answer: 19%

Question: What about the “Mean increase in CSBMs over the 12-week treatment period” value ([3]; 3 mg dose, CIC patients, p<0.001) of the same molecule?
Answer: 2.13

Question: And the Incidence of diarrhea ([3]; 3 mg, CIC patients (placebo incidence 1.3%))?
Answer: 9.7%

Question: What about the Key secondary endpoints ([3]; Phase IIb/III clinical study, CIC patients) of the same molecule?
Answer: statistically significant improvements

Question: And the “Primary and key secondary endpoints of the study” value [3, 5]?
Answer: met the primary and key secondary endpoints

Question: What about the Tolerability [3, 5] of the same molecule?
Answer: well tolerated

Question: What about the GI inflammation (animal models) of the same molecule?
Answer: ameliorates GI inflammation

Question: What about the Intestinal secretion (animal models) of the same molecule?
Answer: promotes intestinal secretion

Question: Which “Production of cGMP among the PDE inhibitors” value (GC-C receptors; in combination with SP-304) does the source give for `CCCOc1ccccc1-c1nc2nn[nH]c2c(=O)[nH]1` [ZAP, zaprinast] here?
Answer: maximum production of cGMP

Question: What about the “Effect of PDE inhibitor on stimulation of cGMP production by SP-304” value (from here on “Effect of PDE inhibitor”) (GC-C receptors) of the same molecule?
Answer: synergistic effects

Question: For `CC1=C(CC(=O)O)c2cc(F)ccc2/C1=C\c1ccc(S(C)(=O)=O)cc1` [SS, sulindac sulfone], which “Effect of PDE inhibitor” value (GC-C receptors) is on record?
Answer: synergistic effects

Question: For “Asn^1-Asp^2-Glu^3-Cys^4-Glu^5-Leu^6-Cys^7-Val^8-Asn^9-Val^10-Ala^11-Cys^12-Thr^13-Gly^14-Cys^15-Leu^16”, which not cleaved [4] is on record?
Answer: major peak did not change after 120 min

Question: What does the source list for `Nc1nc2c(nc(Br)n2[C@@H]2O[C@@H]3COP(=O)(O)O[C@H]3[C@H]2O)c(=O)[nH]1` [8-Br-cGMP, 8-bromo-cGMP, reference compound]?
Answer: Absorption of 3H-taurocholate (kinetics experiment) (CaCo-2 cells): inhibited; Absorption of 3H-taurocholate (bar graph experiment) (CaCo-2 cells): inhibited

Question: For `CC(C)Cn1c(=O)n(C)c(=O)c2[nH]cnc21` [IBMX, 3-isobutyl-1-methylxanthine], which “Effect of PDE inhibitor” value (GC-C receptors) is on record?
Answer: synergistic effects
